From PubChem BioAssay (NCI)
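A five-concentration, 48-hour dose response in 96-well plates underlies each endpoint, interpolated linearly between surrounding concentrations. TGI: concentration producing complete growth inhibition.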

Columns and labels:
Assay in all cases: DTP human tumour cell line panel, 48 h
[1] = test system: COLO 205 colon
[2] = test system: A549 NSCLC
[3] = test system: NCI/ADR-RES ovarian
[4] = test system: KM12 colon
[5] = test system: EKVX NSCLC
[6] = test system: M14 melanoma
[7] = test system: NCI-H522 lung
[8] = test system: SNB-75 CNS
[9] = test system: OVCAR-4 ovarian
[10] = test system: ACHN renal
[11] = test system: PC-3 prostate
[12] = test system: MDA-MB-435
[13] = test system: T-47D breast

Structure (SMILES)	TGI [1]	TGI [2]	TGI [3]	TGI [4]	TGI [5]	TGI [6]	TGI [7]	TGI [8]	TGI [9]	TGI [10]	TGI [11]	TGI [12]	TGI [13]
CC(=O)Nc1ccc2nc(-c3ccccn3)c(-c3ccccn3)nc2c1	> 100 µM	> 100 µM	> 100 µM	> 100 µM	> 100 µM	> 100 µM	> 100 µM	> 100 µM	> 100 µM	> 100 µM	> 100 µM	> 100 µM	–
CCOC(=O)C(NC(=O)c1ccccc1)(Nc1ccc(S(=O)(=O)Nc2ncccn2)cc1)C(F)(F)F (centres undefined)	> 100 µM	> 100 µM	> 100 µM	> 100 µM	> 100 µM	> 100 µM	–	> 100 µM	> 100 µM	> 100 µM	> 100 µM	> 100 µM	> 100 µM
CCC(C)C(N)C(=O)NC(CC(N)=O)C(=O)NC(CC(C)C)C(=O)NC(CCCCN)C(=O)NC(C)C(=O)NC(CC(C)C)C(=O)NC(C)C(=O)NC(C)C(=O)NC(CC(C)C)C(=O)NC(C)C(=O)NC(CCCCN)C(=O)NC(CCCCN)C(=O)NC(C(=O)NC(CC(C)C)C(N)=O)C(C)CC (centres undefined)	32.1 µM	24.9 µM	–	29.5 µM	18.7 µM	8.64 µM	33.3 µM	14 µM	31.9 µM	27.2 µM	–	–	–
COc1ccc(OC)c(NCC(=O)Nn2cnc3ccc(S(=O)(=O)Nc4cc(OC)ccc4OC)cc3c2=O)c1	> 100 µM	> 100 µM	> 100 µM	> 100 µM	> 100 µM	> 100 µM	> 100 µM	> 100 µM	> 100 µM	> 100 µM	> 100 µM	> 100 µM	–
CCOC(=O)CC(c1ccccc1)C(C)(C(=O)OCC)C(=O)OCC (centres undefined)	> 100 µM	> 100 µM	> 100 µM	> 100 µM	> 100 µM	> 100 µM	> 100 µM	> 100 µM	> 100 µM	> 100 µM	> 100 µM	–	> 100 µM
CCOC(=O)Cn1c2ccccc2c(=O)c2cc(C)c(C)c(C#N)c21	> 100 µM	> 100 µM	–	–	> 100 µM	–	–	66.1 µM	–	> 100 µM	–	–	–
CC(CCC[C@H](C)CO)[C@H]1[C@@H](O)C(O)C2[C@@H]3C[C@@H](O)C4(O)C[C@@H](O)CC[C@]4(C)C3CC[C@@]21C (some centres undefined)	> 100 µM	> 100 µM	–	> 100 µM	> 100 µM	> 100 µM	> 100 µM	> 100 µM	> 100 µM	> 100 µM	–	–	–
Clc1cccc(-c2sc(-c3ccsc3)cc2Cc2ccsc2)c1	> 10 µM	> 10 µM	–	> 10 µM	> 10 µM	> 10 µM	–	> 10 µM	> 10 µM	–	> 10 µM	> 10 µM	> 10 µM
CC(=O)OCC1OC(n2ccc(=O)[nH]c2=O)C(OC(C)=O)C(OC(C)=O)C1OC(C)=O (centres undefined)	> 100 µM	> 100 µM	–	> 100 µM	> 100 µM	> 100 µM	> 100 µM	> 100 µM	> 100 µM	> 100 µM	–	–	–
NC(N)=NS(=O)(=O)c1ccc(N/N=C2/CCOC2=O)cc1	> 100 µM	> 100 µM	> 100 µM	> 100 µM	> 100 µM	> 100 µM	–	58.7 µM	> 100 µM	> 100 µM	> 100 µM	> 100 µM	> 100 µM
COc1cc(C2C3=C(COC3=O)Oc3cc4c(cc32)OCO4)ccc1O (centres undefined)	0.576 µM	> 100 µM	> 100 µM	> 100 µM	> 100 µM	> 100 µM	1.31 µM	0.652 µM	> 75.3 µM	> 94.7 µM	> 83.2 µM	–	> 100 µM
COC(=O)N1CC(=O)C(C(=O)NC23CC4CC(CC(C4)C2)C3)C1 (centres undefined)	> 100 µM	> 100 µM	> 100 µM	> 100 µM	–	> 100 µM	> 100 µM	–	> 100 µM	> 100 µM	> 100 µM	> 100 µM	> 100 µM
COc1ccc(C2=NN(c3ccccc3)C[N+](c3ccc(C)cc3)=N2)cc1	> 100 µM	> 100 µM	–	> 10 µM	> 100 µM	–	26.5 µM	–	43.3 µM	> 100 µM	–	–	–
COC(=O)c1cc(C(=O)OC)c(CC(=O)C(=O)NC2C3CC4CC(C3)CC2C4)nc1CC(=O)C(=O)NC1C2CC3CC(C2)CC1C3 (centres undefined)	> 100 µM	> 100 µM	–	> 100 µM	> 100 µM	> 100 µM	> 100 µM	> 100 µM	> 100 µM	> 100 µM	–	–	–
CC(=O)OC(CC1(C)C(C)CCC23COC(=O)C2=CCCC31)c1ccoc1 (centres undefined)	> 100 µM	> 100 µM	–	67.4 µM	97.6 µM	33.9 µM	35.6 µM	78.5 µM	> 100 µM	> 100 µM	–	–	–
COc1cc2c(c(OC)c1OC)-c1ccc(SC)c(=O)cc1C(CC(=O)Oc1cccc([N+](=O)[O-])c1)C2 (centres undefined)	2.24 µM	> 100 µM	–	5.4 µM	> 100 µM	> 100 µM	5.81 µM	0.71 µM	> 100 µM	> 100 µM	–	–	–
NCCSc1cc(O)c2c(c1N)C(=O)c1ccccc1C2=O	–	> 100 µM	–	> 100 µM	> 100 µM	> 100 µM	39.7 µM	> 100 µM	> 100 µM	> 100 µM	–	–	–
Cc1cc(S(=O)(=O)N2CCNNC2=O)c(S)cc1Cl	> 100 µM	> 100 µM	> 100 µM	> 100 µM	> 100 µM	> 100 µM	66.6 µM	> 100 µM	> 100 µM	> 100 µM	> 100 µM	> 100 µM	–
CC1CN=C(NS(=O)(=O)c2cc(C(=O)Nc3ccc(Cl)cc3)c(Cl)cc2S)NN1 (centres undefined)	> 100 µM	> 100 µM	> 100 µM	97.1 µM	> 100 µM	69.5 µM	64.1 µM	–	> 100 µM	> 100 µM	94 µM	73.1 µM	–
CCOC(=O)C(=O)C=P(c1ccccc1)(c1ccccc1)c1ccccc1	> 100 µM	> 100 µM	–	> 100 µM	> 100 µM	> 100 µM	> 100 µM	> 100 µM	> 100 µM	> 100 µM	–	–	–
